{
  "source": "patent US6127392A",
  "about": "“Anthranilic acid analogs” (American Home Products Corporation, priority 1998, dated 2000)",
  "key": {"[1]": {"test_system": "Isolated Rat Bladder Strips", "test": "Inhibition of contractions in isolated rat bladder strips", "assay_type": "cell-based", "method": "Sprague-Dawley rats (150-200 g) are rendered unconscious by CO2 asphyxiation and then euthanized by cervical dislocation. […] The bladder is opened and then cut into strips 1-2 mm in width and 7-10 mm in length. The strips are subsequently suspended in a 10 mL tissue bath under an initial resting tension of 1.5 g. The strips are held in place by two surgical clips one of which is attached to a fixed hook while the other is attached to an isometric force transducer. […] The carbachol is then washed out and the tissue allowed to relax to its resting level of activity. Following a further 30 min period of recovery an additional 15 mM KCl are introduced into the tissue bath. […] Following stabilization of this enhanced level of contractile activity, incremental increases in the concentration of test compound or vehicle are introduced into the tissue bath. Contractile activity is measured for each compound or vehicle concentration during the last minute of a 30 minute challenge."}, "[2]": {"test_system": "swelling induced chloride channel current", "test": "Chloride channel blockade, swelling induced chloride current in bladder cells", "assay_type": "cell-based, guinea pig", "source_text": "Normal human bronchial epithelial cells (NHBE) were commercially available from Clonetics Corporation (San Diego, Calif.) and bladder cells were isolated from rat bladder.\nThe normal external solution contained (in mM): N-methyl d-Glucamine chloride (NMDGCl). 140, MgCl2 2, CaCl2 2 and 4-(2-hydroxyethyl)-1-piperazine ethanesulfonic acid (HEPES) 10. The normal pipette solution contained (in mM): NMDGCI. 125, HEPES 10, MgCl2 2, ethylenebis(oxonitrilo)tetraacetate (EGTA) 2, and ATPMg 5, the pH adjusted to 7.3 with TRIS. To identify the leak conductance from depolarization, internal Cl ion concentration was reduced to 40 mM using glutamic acid (ECl approximately -31 mV according Nernst equation). The osmolarity for standard external solution was about 280 mOsm. […]\nThe whole cell voltage clamp recording techniques were utilized to record membrane ionic currents. […] Membrane currents were recorded using an Axopatch 200A Patch Clamp Amplifier (Axon Instruments, Inc., Foster City, Calif.). […]\nA: current traces from -100 to 60 mV were recorded in the isotonic, low osmolarity (210 mOsm) and after application of 20 μM Example 1 in same cell. […] Panel B is four superimposed ramp test traces recorded in the presence of control, hypotonic, Example 1 and washout solutions. The C panel depicts the time course of the effect of Example 1 on ICl,swelling at 60 mV monitored from the same cell."}, "[3]": {"target": "T1, calcium-dependent large conductance potassium channels (maxi K^+) (Rattus norvegicus, UniProt Q62976)", "T1 construct": "Rat detrusor cells were isolated in a manner previously described for guinea-pig detrusor; from tissue; host or cells: freshly isolated detrusor smooth muscle cells from urinary bladder dome of male Sprague-Dawley rats (endogenous channel)", "T1 sequence (Q62976 whole entry)": "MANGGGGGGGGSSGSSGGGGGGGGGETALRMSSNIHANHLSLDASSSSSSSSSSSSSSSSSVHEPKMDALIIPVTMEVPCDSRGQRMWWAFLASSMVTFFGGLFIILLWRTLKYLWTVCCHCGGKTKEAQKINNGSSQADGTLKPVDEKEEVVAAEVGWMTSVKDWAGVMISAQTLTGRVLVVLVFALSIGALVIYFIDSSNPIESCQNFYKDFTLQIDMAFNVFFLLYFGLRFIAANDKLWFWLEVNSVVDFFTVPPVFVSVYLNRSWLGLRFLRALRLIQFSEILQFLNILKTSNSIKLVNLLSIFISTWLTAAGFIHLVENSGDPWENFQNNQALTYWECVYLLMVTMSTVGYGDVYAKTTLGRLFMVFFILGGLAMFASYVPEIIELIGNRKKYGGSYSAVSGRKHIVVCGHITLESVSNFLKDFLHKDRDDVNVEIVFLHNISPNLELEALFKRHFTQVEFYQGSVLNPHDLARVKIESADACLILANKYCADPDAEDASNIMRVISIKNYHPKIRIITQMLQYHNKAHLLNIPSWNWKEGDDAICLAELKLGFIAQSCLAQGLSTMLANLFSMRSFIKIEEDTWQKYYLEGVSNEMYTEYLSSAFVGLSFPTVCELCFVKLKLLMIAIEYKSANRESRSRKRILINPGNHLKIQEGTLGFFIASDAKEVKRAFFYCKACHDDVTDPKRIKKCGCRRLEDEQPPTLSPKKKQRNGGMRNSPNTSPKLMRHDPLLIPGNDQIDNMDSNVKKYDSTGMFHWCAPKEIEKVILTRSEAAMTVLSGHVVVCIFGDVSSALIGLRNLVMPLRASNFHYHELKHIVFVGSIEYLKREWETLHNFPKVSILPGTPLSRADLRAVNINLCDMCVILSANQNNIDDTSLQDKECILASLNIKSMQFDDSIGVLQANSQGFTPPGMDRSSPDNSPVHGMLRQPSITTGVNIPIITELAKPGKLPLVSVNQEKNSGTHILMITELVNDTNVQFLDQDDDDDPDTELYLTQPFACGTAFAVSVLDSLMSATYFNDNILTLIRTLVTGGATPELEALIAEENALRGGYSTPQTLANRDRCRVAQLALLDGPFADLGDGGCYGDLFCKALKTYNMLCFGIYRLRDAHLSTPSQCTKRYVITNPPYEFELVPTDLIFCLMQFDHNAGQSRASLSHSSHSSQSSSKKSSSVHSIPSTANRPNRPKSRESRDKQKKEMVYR", "test": "Potassium channel activation, whole cell patch clamp in isolated rat detrusor cells", "assay_type": "cell-based", "method": "Potassium channel activation by compounds of the present invention was established by examining the effect of the compound of Example 1 on calcium-dependent large conductance potassium channels (maxi K^+) as follows:\nRat detrusor cells were isolated in a manner previously described for guinea-pig detrusor (Sheldon and Argentieri, 1995). Male Sprage-Dawley rats (200-400 grams) were euthanized by CO2 inhalation and exsanguination. Their urinary bladders were rapidly removed and placed in 37° C. physiological solution with the following composition (mM): Na glutamate (80.0), NaCl (54.7), KCl (5.0), NaHCO3 (25.0), MgCl2.2H2 O (2.5), D-glucose (11.8) and CaCl2 (0.2) gassed with […], 95%/5% for a final pH of 7.4. The dome of the bladder was isolated from the trigon region and the mucosa was removed. This tissue was then cut into 2-3 mm wide strips and placed in fresh buffer for 1 hour. Tissues were then transferred into 10.0 ml of an isolation buffer containing the above composition plus collagenase type VIII (1.0 mg/ml) and pronase (0.25 mg/ml). After 10 minutes the isolation buffer was replaced with fresh isolation buffer for an additional 10 min. […]\nWhole cell recordings were made using broken patch assess. […] After stability was achieved control currents were recorded. […] Currents were recorded for 5 to 10 minutes or until compound effects reached steady state. […]"}},
  "data": [
    {"smiles": "C/C(=C\\c1ccc(C(F)(F)F)cc1)C(=O)Nc1ccccc1C(=O)O", "note": "[1, Step 4]", "values": [
      {"measurement": "IC50 (A)/IC50 (B)", "setting": "[1]; aorta/bladder IC50 ratio, selectivity", "value": 39.6}
    ]},
    {"smiles": "C/C(=C\\c1ccc(C(F)(F)F)cc1)C(=O)Nc1ccccc1C(=O)[O-].[Li+]", "note": "[Example 1, Step 4, (E)-2-[2-Methyl-3-(4-trifluoromethyl-phenyl)-acryloylamino]-benzoic acid lithium salt]", "values": [
      {"measurement": "effect on swelling induced chloride current", "setting": "[2]; 20 μM, guinea pig bladder cell, low osmolarity 210 mOsm", "value": "significantly reduced swelling induced chloride current"},
      {"measurement": "inhibition at 20 µM", "setting": "[2]; Cavia porcellus, Bladder, Swelling ICl, 60 mV, 210 mOsm", "value": 67, "unit": "%"},
      {"measurement": "effect on outward current (maxi K^+ current)", "setting": "[3]; 10 μM in superfusate, isolated rat bladder cells", "value": "increase in outward current that was reversible upon washout"}
    ]},
    {"smiles": "COc1ccc(/C=C/C(=O)Nc2ccccc2C(=O)O)cc1OC", "note": "[Tranilast, reference compound]", "values": [
      {"measurement": "smooth muscle relaxant potency and bladder selectivity", "setting": "[1]; bladder/aorta IC50 ratios, Table 1", "value": "not to be a potent or bladder selective smooth muscle relaxant"}
    ]},
    {"smiles": "COc1ccc(Cl)cc1C(=O)NCCc1ccc(S(=O)(=O)NC(=O)NC2CCCCC2)cc1", "note": "[glyburide, reference compound]", "values": [
      {"measurement": "effect of glyburide on outward current", "setting": "[3]; glyburide 5 μM added to the superfusate", "value": "no effect"}
    ]}
  ]
}
